# In ChEMBL document CHEMBL4004882, “Synthesis of novel trifluoromethyl-substituted spiro-[chromeno[4,3-d]pyrimidine-5,1'-cycloalkanes], and evaluation of their analgesic effects in a mouse pain model” (Bioorg Med Chem Lett, 2017):
# Calls of active or inactive are those of the source. The rule behind the calls is not given here.
# Experiments:
# Mus musculus [1] = assay: Antinociceptive activity in Swiss mouse assessed as inhibition of capsaicin-induced nociception at 100 mg/kg, po administered 1 hr followed by capsaicin challenge measured for 5 mins relative to vehicle-treated control; type: functional
# Mus musculus [2] = assay: Antinociceptive activity in Swiss mouse assessed as inhibition of CFA-induced mechanical allodynia at 100 mg/kg, po after 2 hrs relative to vehicle-treated control; type: functional
# Mus musculus [3] = assay: Antinociceptive activity in Swiss mouse assessed as inhibition of CFA-induced mechanical allodynia at 100 mg/kg, po measured over 6 hrs; type: functional, organism-based
# Mus musculus [4] = assay: Antinociceptive activity in po dosed Swiss mouse assessed as inhibition of CFA-induced mechanical allodynia after 2 hrs; type: functional; conditions: read-out: ID50 (the source's name)
# Mus musculus [5] = assay: Antinociceptive activity in Swiss mouse assessed as inhibition of CFA-induced mechanical allodynia at 300 mg/kg, po after 2 hrs relative to vehicle-treated control; type: functional
# Mus musculus [6] = assay: Toxicity in Swiss mouse assessed as effect on spontaneous locomotor activity at 100 mg/kg, po after 1 hr by open field test; type: organism-based; conditions: in vivo
# Mus musculus [7] = assay: Toxicity in Swiss mouse assessed as effect on forced locomotor activity at 100 mg/kg, po after 1 hr by rotarod test; type: organism-based; conditions: in vivo
# Mus musculus [8] = assay: Antinociceptive activity in Swiss mouse assessed as inhibition of CFA-induced mechanical allodynia at 100 mg/kg, po measured over 4 hrs; type: functional, organism-based
smiles,measurement,setting,value
Nc1nc2c(c(C(F)(F)F)n1)C1(CCCCCC1)Oc1ccccc1-2,inhibition,Mus musculus [1],Active
FC(F)(F)c1nc(-c2ccccc2)nc2c1C1(CCCCCC1)Oc1ccccc1-2,inhibition,Mus musculus [1],Active
FC(F)(F)c1nc(-c2ccccc2)nc2c1C1(CCCC1)Oc1ccccc1-2,inhibition,Mus musculus [1],Active
FC(F)(F)c1nc(-c2ccccc2)nc2c1C1(CCCCC1)Oc1ccccc1-2,inhibition,Mus musculus [1],Active
FC(F)(F)c1nc(-n2cccc2)nc2c1C1(CCCCC1)Oc1ccccc1-2,Imax,Mus musculus [1],83%
same,inhibition in vivo at 100 mg/kg,Mus musculus [2],≤ 68%
same,inhibition,Mus musculus [3],Active
same,ED50,Mus musculus [4],422 mg/kg
same,Imax,Mus musculus [5],66%
same,Activity,Mus musculus [6],Non-Toxic
same,Activity,Mus musculus [7],Non-Toxic
Nc1nc2c(c(C(F)(F)F)n1)C1(CCCCC1)Oc1ccccc1-2,inhibition,Mus musculus [1],Active
FC(F)(F)c1nc(-n2cccc2)nc2c1C1(CCCCCC1)Oc1ccccc1-2,inhibition,Mus musculus [1],Active
CC(C(=O)O)c1cccc(C(=O)c2ccccc2)c1 (stereo not given) [KETOPROFEN],inhibition in vivo at 100 mg/kg,"Mus musculus [1]; Mus musculus, Swiss, po",80%
same,inhibition in vivo at 100 mg/kg,Mus musculus [2],≤ 65%
same,inhibition,Mus musculus [8],Active
same,ED50,Mus musculus [4],169 mg/kg
same,Imax,Mus musculus [5],75%
Nc1nc2c(c(C(F)(F)F)n1)C1(CCCC1)Oc1ccccc1-2,inhibition,Mus musculus [1],Active
FC(F)(F)c1nc(-n2cccc2)nc2c1C1(CCCC1)Oc1ccccc1-2,inhibition,Mus musculus [1],Active
